Measurements as given in patent US20230085307A1, “PYRIDAZINONE COMPOUND AND HERBICIDE” (NISSAN CHEMICAL CORPORATION, priority 2019, published 2023).

How the values were obtained:
wild oat = assay: Test Example 5: herbicidal effect by foliage application, plastic box (Table 20, symbol I); format: in vivo, wild oat (Avena fatua); conditions: foliage application, AAH 320 g/ha, evaluated three weeks after application
Outline: (§1)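 Sow seeds spot-wise in sterilized diluvial soil; cover with ~1.5 cm soil. Grow 14 days in greenhouse, 25° C. to 30° C. Spray foliage with emulsion diluted to predetermined amount. Rate effect after 3 weeks.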

Japanese bulrush = assay: Test Example 2: herbicidal activity, application during weed generation under submerged conditions (Table 17, symbol B); format: in vivo, Japanese bulrush (Schoenoplectus juncoides); conditions: AAH 320 g/ha; application during weed generation, submerged conditions
Outline: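 Mixed weed seedlings in alluvial soil under a 4 cm water layer, greenhouse-grown at 25–30° C. Compound given as a diluted emulsion into the floodwater at the 1–2 leaf stage; response graded after three weeks.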

barnyard grass [1] = assay: Test Example 3: herbicidal effect by foliage application, Wagner pot (Table 18, symbol H); format: in vivo, barnyard grass (Echinochloa crus-galli); conditions: amount of applied herbicide 320 g/ha
Outline: (§2)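 Plants were sown in alluvial soil held under 0.1–0.5 cm standing water and grown 14 days in a greenhouse at 25–30 °C. An emulsifiable formulation, water-diluted to the set dose, was then sprayed onto the foliage, and effects were scored three weeks later using previously defined criteria.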

velvetleaf = assay: Test Example 4: herbicidal effect by soil treatment (Table 19, symbol M); format: in vivo, velvetleaf (Abutilon theophrasti); conditions: amount of applied herbicide 320 g/ha
Outline: (§3)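 Soil-surface application: an emulsion agent diluted with water to the predetermined dose is sprayed uniformly over seeds lying under roughly 1.5 cm of sterilized diluvial soil. Boxes stay in a greenhouse at 25° C. to 30° C. Three weeks later, each species is graded on previously defined criteria.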

late watergrass = assay: Test Example 1: herbicidal activity, application before weed generation under submerged conditions (Table 16, symbol A); format: in vivo, late watergrass (Echinochloa oryzicola); conditions: 320 g/ha applied herbicide
Outline: (§4)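 Alluvial soil was flooded to 4 cm depth, weed seeds were sown mixed and 2.5-leaf rice seedlings were transplanted. On sowing day, the compound's emulsion, diluted in water to a set dose, was applied to the water surface. Plants grew at 25–30 °C and were scored 0–5 after three weeks.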

barnyard grass [2] = assay: Test Example 4: herbicidal effect by soil treatment (Table 19, symbol H); format: in vivo, barnyard grass (Echinochloa crus-galli); conditions: amount of applied herbicide 320 g/ha
Outline: as §3

rice flat sedge = assay: Test Example 3: herbicidal effect by foliage application, Wagner pot (Table 18, symbol E); format: in vivo, rice flat sedge (Cyperus iria); conditions: amount of applied herbicide 320 g/ha
Outline: as §2

green foxtail = assay: Test Example 4: herbicidal effect by soil treatment (Table 19, symbol G); format: in vivo, green foxtail (Setaria viridis); conditions: amount of applied herbicide 320 g/ha
Outline: as §3

redroot pigweed = assay: Test Example 4: herbicidal effect by soil treatment (Table 19, symbol N); format: in vivo, redroot pigweed (Amaranthus retroflexus); conditions: amount of applied herbicide 320 g/ha
Outline: as §3

blackgrass = assay: Test Example 5: herbicidal effect by foliage application, plastic box (Table 20, symbol J); format: in vivo, blackgrass (Alopecurus myosuroides); conditions: foliage application, AAH 320 g/ha, evaluated three weeks after application
Outline: as §1

chickweed = assay: Test Example 4: herbicidal effect by soil treatment (Table 19, symbol P); format: in vivo, common chickweed (Stellaria media); conditions: amount of applied herbicide 320 g/ha
Outline: as §3

barnyard grass [3] = assay: Test Example 5: herbicidal effect by foliage application, plastic box (Table 20, symbol H); format: in vivo, barnyard grass (Echinochloa crus-galli); conditions: foliage application, AAH 320 g/ha, evaluated three weeks after application
Outline: as §1

persian speedwell [4] = assay: Test Example 5: herbicidal effect by foliage application, plastic box (Table 20, symbol R); format: in vivo, Persian speedwell (Veronica persica); conditions: foliage application, AAH 320 g/ha, evaluated three weeks after application
Outline: as §1

persian speedwell [5] = assay: Test Example 4: herbicidal effect by soil treatment (Table 19, symbol R); format: in vivo, Persian speedwell (Veronica persica); conditions: amount of applied herbicide 320 g/ha
Outline: as §3

oval-leafed pondweed = assay: Test Example 1: herbicidal activity, application before weed generation under submerged conditions (Table 16, symbol C); format: in vivo, oval-leafed pondweed (Monochoria vaginalis); conditions: 320 g/ha applied herbicide
Outline: as §4

southern crabgrass = assay: Test Example 5: herbicidal effect by foliage application, plastic box (Table 20, symbol F); format: in vivo, southern crabgrass (Digitaria ciliaris); conditions: foliage application, AAH 320 g/ha, evaluated three weeks after application
Outline: as §1

For `CC(=O)c1ccc(-c2sc3ccc(F)cc3c2-c2c(O)c(C)nn(C)c2=O)cc1` [2-339], the “I: wild oat, herbicidal effect (criteria 0-5)” value (wild oat) was 3 (Herbicidal rate of 40% or more and less than 70%), the “herbicidal effect rating, B: Japanese bulrush” value (Japanese bulrush) was 3 (Herbicidal rate of 40% or more and less than 70%) and the “herbicidal effect on H: barnyard grass” value (barnyard grass [1]) was 5 (Herbicidal rate of 90% or more (almost completely withered)). The “herbicidal effect on M: velvetleaf” value (velvetleaf) was 5 (Herbicidal rate of 90% or more (almost completely withered)), the “Herbicidal effect on A: late watergrass (grade 0-5)” value (late watergrass) was 4 (Herbicidal rate of 70% or more and less than 90%) and the “herbicidal effect on H: barnyard grass” value (barnyard grass [2]) was 0 (Herbicidal rate of 5% or less (almost no effect)). For the same compound, the “herbicidal effect on E: rice flat sedge” value (rice flat sedge) was 4 (Herbicidal rate of 70% or more and less than 90%), the “herbicidal effect on G: green foxtail” value (green foxtail) was 0 (Herbicidal rate of 5% or less (almost no effect)) and the “herbicidal effect on N: redroot pigweed” value (redroot pigweed) was 4 (Herbicidal rate of 70% or more and less than 90%). For the same compound, the “J: blackgrass, herbicidal effect (criteria 0-5)” value (blackgrass) was 1 (Herbicidal rate of 5% or more and less than 20%), the “herbicidal effect on P: chickweed” value (chickweed) was 3 (Herbicidal rate of 40% or more and less than 70%) and the “H: barnyard grass, herbicidal effect (criteria 0-5)” value (barnyard grass [3]) was 3 (Herbicidal rate of 40% or more and less than 70%). The “R: persian speedwell, herbicidal effect (criteria 0-5)” value (persian speedwell [4]) was 5 (Herbicidal rate of 90% or more (almost completely withered)), the “herbicidal effect on R: persian speedwell” value (persian speedwell [5]) was 4 (Herbicidal rate of 70% or more and less than 90%) and the “Herbicidal effect on C: oval-leafed pondweed (grade 0-5)” value (oval-leafed pondweed) was 5 (Herbicidal rate of 90% or more (almost completely withered)). For the same compound, the “F: southern crabgrass, herbicidal effect (criteria 0-5)” value (southern crabgrass) was 3 (Herbicidal rate of 40% or more and less than 70%).

In the case of `Cc1nn(C)c(=O)c(-c2c(-c3ccc([N+](=O)[O-])cc3)sc3ccc(F)cc23)c1O` [2-341], the “I: wild oat, herbicidal effect (criteria 0-5)” value (wild oat) is reported as 4 (Herbicidal rate of 70% or more and less than 90%), the “herbicidal effect rating, B: Japanese bulrush” value (Japanese bulrush) is reported as 3 (Herbicidal rate of 40% or more and less than 70%) and the “herbicidal effect on H: barnyard grass” value (barnyard grass [1]) is reported as 4 (Herbicidal rate of 70% or more and less than 90%). The “herbicidal effect on M: velvetleaf” value (velvetleaf) was 3 (Herbicidal rate of 40% or more and less than 70%), the “Herbicidal effect on A: late watergrass (grade 0-5)” value (late watergrass) was 3 (Herbicidal rate of 40% or more and less than 70%) and the “herbicidal effect on H: barnyard grass” value (barnyard grass [2]) was 3 (Herbicidal rate of 40% or more and less than 70%). For the same compound, the “herbicidal effect on E: rice flat sedge” value (rice flat sedge) was 3 (Herbicidal rate of 40% or more and less than 70%), the “herbicidal effect on G: green foxtail” value (green foxtail) was 4 (Herbicidal rate of 70% or more and less than 90%) and the “herbicidal effect on N: redroot pigweed” value (redroot pigweed) was 5 (Herbicidal rate of 90% or more (almost completely withered)). The “J: blackgrass, herbicidal effect (criteria 0-5)” value (blackgrass) was 4 (Herbicidal rate of 70% or more and less than 90%), the “herbicidal effect on P: chickweed” value (chickweed) was 4 (Herbicidal rate of 70% or more and less than 90%) and the “H: barnyard grass, herbicidal effect (criteria 0-5)” value (barnyard grass [3]) was 4 (Herbicidal rate of 70% or more and less than 90%). For the same compound, the “R: persian speedwell, herbicidal effect (criteria 0-5)” value (persian speedwell [4]) was 5 (Herbicidal rate of 90% or more (almost completely withered)), the “herbicidal effect on R: persian speedwell” value (persian speedwell [5]) was 5 (Herbicidal rate of 90% or more (almost completely withered)) and the “Herbicidal effect on C: oval-leafed pondweed (grade 0-5)” value (oval-leafed pondweed) was 5 (Herbicidal rate of 90% or more (almost completely withered)). For the same compound, the “F: southern crabgrass, herbicidal effect (criteria 0-5)” value (southern crabgrass) was 5 (Herbicidal rate of 90% or more (almost completely withered)).
